This is an account of results in ChEMBL document CHEMBL1781912, “In search of patterns over physicochemical properties and pharmacological activities for a set of [MCl₂(thiosemicarbazone)] complexes (M=Pt/Pd): support for multiple mechanisms of antichagasic action excluding DNA-bonding in vivo?” (Eur J Med Chem, 2011).

The assay relates to Trypanosoma cruzi. The assay can be described thus: Antichagasic activity against Trypanosoma cruzi Tulahuen 2. The assay is classed as functional, organism-based.
As a reminder, the IC50 is the concentration that inhibits the measured activity by half. Low values mean greater potency in that assay, high ones weaker potency in that assay. In turn, `CC1CS(=O)(=O)CCN1/N=C/c1ccc([N+](=O)[O-])o1` (centres undefined) [NIFURTIMOX] yielded a half-inhibitory concentration (IC50) of 6.1 µM.
As to `NC(=S)N/N=C\C=C\c1ccc([N+](=O)[O-])o1`, the midpoint of inhibition, the IC50, lay at 3.5 µM.
For `O=[N+]([O-])c1ccc(/C=N/NC(=S)Nc2ccccc2)o1`, the IC50 is > 25 µM.
In the case of `NC(=S)N/N=C/c1ccc([N+](=O)[O-])o1` it was 2.7 µM; in that of `CCNC(=S)N/N=C/c1ccc([N+](=O)[O-])o1`, 4.9 µM.
For `CCNC(=S)N/N=C/C=C/c1ccc([N+](=O)[O-])o1`, inhibition was half-maximal at 4.1 µM (IC50).
As for `CNC(=S)N/N=C/C=C/c1ccc([N+](=O)[O-])o1`, it took 4.5 µM to reach half-maximal inhibition (IC50).
`CNC(=S)N/N=C/c1ccc([N+](=O)[O-])o1` registered an IC50 of 5 µM.
In the case of `O=[N+]([O-])c1ccc(/C=C/C=N/NC(=S)Nc2ccccc2)o1` it was 3.6 µM.
